Data published in patent US20140288026A1, “IN[…]” (MAGNA E[…]., priority 2011, published 2014).

Test: Hydrolysis of dilute aqueous insecticide solution (EPA OPPT 835.2130 Hydrolysis as a Function of pH and Temperature)
Format: physicochemical
Settings: for Bifenthrin remaining: same solution plus 220ppm polymer particles (55% solids vinyl acetate-ethylene copolymer latex, Tg 10° C.)
Experimental: In fact, we have made dilute aqueous solutions of Bifenthrin (0.0895 ppm at pH 11.0) in accordance with EPA Fate, Transport and Transformation Test Guidelines OPPT 835.2130 Hydrolysis as a Function of pH and Temperature. After 5 hours at 25° C. only 45% of the insecticide could be detected in the solution and after 15 hours only 12% remained.

Question: What does the source list for `Cc1c(COC(=O)[C@@H]2[C@H](/C=C(\Cl)C(F)(F)F)C2(C)C)cccc1-c1ccccc1` (racemic) [Bifenthrin]?
Answer: insecticide detected in the solution (0.0895 ppm aqueous solution at pH 11.0, 25° C., after 5 hours, no polymer particles): 45%; insecticide remaining in the solution (0.0895 ppm aqueous solution at pH 11.0, 25° C., after 15 hours, no polymer particles): 12%; Bifenthrin remaining (after 5 hours): 95%; Bifenthrin remaining (after 15 hours): 93%
